Test results: patent publication US20140045824A1, “METHOD FOR PRODUCING COMPLEX CRYSTAL AND METHOD FOR SCREENING COMPLEX CRYSTAL” (priority 2011, published 2014)

Columns and labels:
Assay type in all cases: physicochemical
[1] = Cocrystal screening by heat melting 1-menthol (Example 1), powder X-ray diffraction and thermal analysis; set-up: key to Cocrystal formation, Example 1: A cocrystal was completely formed.; B: A mixture of a cocrystal and the host compound or guest compound was formed.; C: A cocrystal was not formed (a mixture of the host compound and the guest compound was formed); conditions: host theophylline, equimolar guest, 1-menthol added, 4 hours at 80° C.
Experimental: Theophylline and a guest compound shown in Table 1 in an equimolar amount to theophylline were weighed and mixed using an agate mortar. […] Thereafter, the obtained mixed powder of theophylline, the guest compound, and 1-menthol was heated for 4 hours in an oven at 80° C., and the obtained solid was subjected to powder X-ray diffraction measurement and thermal analysis.

[2] = Cocrystal screening by mixing and grinding method (Comparative Example 5); set-up: key: A cocrystal was completely formed.; B: A mixture of a cocrystal and the host compound or guest compound was formed.; C: A cocrystal was not formed (a mixture of the host compound and the guest compound was formed); conditions: host carbamazepine, equimolar guest, mixed/ground in agate mortar
Description: Carbamazepine and a guest compound shown in Table 4 in an equimolar amount to carbamazepine were weighed and mixed using an agate mortar. At that time, particles having a large size to an extent that they could be distinguished through visual inspection were grinded on the agate mortar. The obtained solids were subjected to powder X-ray diffraction measurement and thermal analysis.

[3] = Cocrystal screening by co-grinding method (Comparative Example 2); set-up: key: A cocrystal was completely formed.; B: A mixture of a cocrystal and the host compound or guest compound was formed.; C: A cocrystal was not formed (a mixture of the host compound and the guest compound was formed); conditions: host theophylline, equimolar guest, mixed/ground in agate mortar
Experimental: 3 mg (0.0167 mmoles) of theophylline and a guest compound shown in Table 1 in an equimolar amount (0.0167 mmoles) to theophylline were weighed and mixed using an agate mortar. At that time, particles having a large size to an extent that they could be distinguished through visual inspection were grinded on the agate mortar. The obtained solids were subjected to powder X-ray diffraction measurement and thermal analysis.

[4] = Cocrystal screening by heating method without menthol (Comparative Example 3); set-up: key: A cocrystal was completely formed.; B: A mixture of a cocrystal and the host compound or guest compound was formed.; C: A cocrystal was not formed (a mixture of the host compound and the guest compound was formed); conditions: host theophylline, equimolar guest, no menthol, 4 hours at 80° C.
Experimental: 3 mg (0.0167 mmoles) of theophylline and a guest compound shown in Table 1 in an equimolar amount (0.0167 mmoles) to theophylline were weighed and mixed using an agate mortar. At that time, particles having a large size to an extent that they could be distinguished through visual inspection were grinded on the agate mortar. 10 mg of this mixed powder was weighed and put into a test tube, followed by heating for 4 hours in an oven at 80° C. The obtained solid was subjected to powder X-ray diffraction measurement and thermal analysis.

[5] = Cocrystal screening by slurry method (Comparative Examples 4-1 to 4-6), powder X-ray diffraction; set-up: key: A cocrystal was completely formed.; B: A mixture of a cocrystal and the host compound or guest compound was formed.; C: A cocrystal was not formed (a mixture of the host compound and the guest compound was formed); conditions: host carbamazepine; for Cocrystal formation, Comparative Example 4-6: slurry in acetone; for Cocrystal formation, Comparative Example 4-6 / Cocrystal formation, Comparative Example 4-2 / Cocrystal formation, Comparative Example 4-5 / Cocrystal formation, Comparative Example 4-4 / Cocrystal formation, Comparative Example 4-1 / Cocrystal formation, Comparative Example 4-3: room temperature 7 days; for Cocrystal formation, Comparative Example 4-2: slurry in ethanol; for Cocrystal formation, Comparative Example 4-5: slurry in ethyl acetate; for Cocrystal formation, Comparative Example 4-4: slurry in toluene; for Cocrystal formation, Comparative Example 4-1: slurry in water; for Cocrystal formation, Comparative Example 4*: slurry summary: A if a cocrystal was formed in any one of Comparative Examples 4-1 to 4-6; for Cocrystal formation, Comparative Example 4-3: slurry in tetrahydrofuran
Experimental: 3 mg (0.0127 mmoles) of carbamazepine and a guest compound shown in Table 4 in an equimolar amount (0.0127 mmoles) to carbamazepine were weighed and put into a glass container, to which was then added 60 μL of water. These were shaken at room temperature for 7 days, and the obtained residues were subjected to powder X-ray diffraction measurement. 3 mg (0.0127 mmoles) of carbamazepine and a guest compound shown in Table 4 in an equimolar amount (0.0127 mmoles) to carbamazepine were weighed and put into a glass container, to which was then added 60 μL of ethanol. These were shaken at room temperature for 7 days, and the obtained residues were subjected to powder X-ray diffraction measurement. 3 mg (0.0127 mmoles) of carbamazepine and a guest compound shown in Table 4 in an equimolar amount (0.0127 mmoles) to carbamazepine were weighed and put into a glass container, to which was then added 60 μL of tetrahydrofuran. These were shaken at room temperature for 7 days, and the obtained residues were subjected to powder X-ray diffraction measurement. 3 mg (0.0127 mmoles) of carbamazepine and a guest compound shown in Table 4 in an equimolar amount (0.0127 mmoles) to carbamazepine were weighed and put into a glass container, to which was then added 60 μL of toluene. These were shaken at room temperature for 7 days, and the obtained residues were subjected to powder X-ray diffraction measurement. 3 mg (0.0127 mmoles) of carbamazepine and a guest compound shown in Table 4 in an equimolar amount (0.0127 mmoles) to carbamazepine were weighed and put into a glass container, to which was then added 60 μL of ethyl acetate. These were shaken at room temperature for 7 days, and the obtained residues were subjected to powder X-ray diffraction measurement. 3 mg (0.0127 mmoles) of carbamazepine and a guest compound shown in Table 4 in an equimolar amount (0.0127 mmoles) to carbamazepine were weighed and put into a glass container, to which was then added 60 μL of acetone. These were shaken at room temperature for 7 days, and the obtained residues were subjected to powder X-ray diffraction measurement.

[6] = Cocrystal screening by heat melting 1-menthol (Example 2), powder X-ray diffraction and thermal analysis; set-up: key: A cocrystal was completely formed.; B: A mixture of a cocrystal and the host compound or guest compound was formed.; C: A cocrystal was not formed (a mixture of the host compound and the guest compound was formed); conditions: host carbamazepine, equimolar guest, 1-menthol added, 10 hours at 80° C.
Experimental: Carbamazepine and a guest compound shown in Table 4 in an equimolar amount to carbamazepine were weighed and mixed using an agate mortar. […] Thereafter, the obtained mixed powder of carbamazepine, the guest compound, and 1-menthol was heated for 10 hours in an oven at 80° C., and the obtained solids were subjected to powder X-ray diffraction measurement and thermal analysis.

C/C=C/C=C/C(=O)O [Sorbic acid]
Cocrystal formation, Example 1 [1]: B | Cocrystal formation, Comparative Example 5 [2]: C | Cocrystal formation, Comparative Example 2 [3]: C | Cocrystal formation, Comparative Example 3 [4]: B | Cocrystal formation, Comparative Example 4-6 [5]: C | Cocrystal formation, Comparative Example 4-2 [5]: C | Cocrystal formation, Comparative Example 4-5 [5]: C | Cocrystal formation, Comparative Example 4-4 [5]: C | Cocrystal formation, Comparative Example 4-1 [5]: C | Cocrystal formation, Comparative Example 4* [5]: C | Cocrystal formation, Example 2 [6]: A

O=C(O)/C=C\C(=O)O [Maleic acid]
Cocrystal formation, Example 1 [1]: A | Cocrystal formation, Comparative Example 5 [2]: C | Cocrystal formation, Comparative Example 2 [3]: C | Cocrystal formation, Comparative Example 3 [4]: B | Cocrystal formation, Comparative Example 4-6 [5]: C | Cocrystal formation, Comparative Example 4-2 [5]: A | Cocrystal formation, Comparative Example 4-5 [5]: A | Cocrystal formation, Comparative Example 4-3 [5]: A | Cocrystal formation, Comparative Example 4-4 [5]: A | Cocrystal formation, Comparative Example 4-1 [5]: A | Cocrystal formation, Comparative Example 4* [5]: A | Cocrystal formation, Example 2 [6]: A

O=C1NS(=O)(=O)c2ccccc21 [Saccharin]
Cocrystal formation, Example 1 [1]: A | Cocrystal formation, Comparative Example 5 [2]: C | Cocrystal formation, Comparative Example 2 [3]: C | Cocrystal formation, Comparative Example 3 [4]: C | Cocrystal formation, Comparative Example 4-6 [5]: B | Cocrystal formation, Comparative Example 4-2 [5]: A | Cocrystal formation, Comparative Example 4-5 [5]: A | Cocrystal formation, Comparative Example 4-4 [5]: A | Cocrystal formation, Comparative Example 4-1 [5]: C | Cocrystal formation, Comparative Example 4* [5]: A | Cocrystal formation, Example 2 [6]: A

NCC(=O)O [Glycine]
Cocrystal formation, Example 1 [1]: C | Cocrystal formation, Comparative Example 5 [2]: C | Cocrystal formation, Comparative Example 2 [3]: C | Cocrystal formation, Comparative Example 3 [4]: C | Cocrystal formation, Comparative Example 4-6 [5]: C | Cocrystal formation, Comparative Example 4-2 [5]: C | Cocrystal formation, Comparative Example 4-5 [5]: C | Cocrystal formation, Comparative Example 4-4 [5]: C | Cocrystal formation, Comparative Example 4-1 [5]: C | Cocrystal formation, Comparative Example 4* [5]: C | Cocrystal formation, Example 2 [6]: C

NC(=O)c1cccnc1 [Nicotinamide]
Cocrystal formation, Example 1 [1]: A | Cocrystal formation, Comparative Example 5 [2]: C | Cocrystal formation, Comparative Example 2 [3]: C | Cocrystal formation, Comparative Example 3 [4]: C | Cocrystal formation, Comparative Example 4-6 [5]: B | Cocrystal formation, Comparative Example 4-2 [5]: A | Cocrystal formation, Comparative Example 4-5 [5]: A | Cocrystal formation, Comparative Example 4-3 [5]: A | Cocrystal formation, Comparative Example 4-4 [5]: A | Cocrystal formation, Comparative Example 4-1 [5]: C | Cocrystal formation, Comparative Example 4* [5]: A | Cocrystal formation, Example 2 [6]: A

O=C(O)C(=O)O [Oxalic acid]
Cocrystal formation, Example 1 [1]: B | Cocrystal formation, Comparative Example 5 [2]: C | Cocrystal formation, Comparative Example 2 [3]: B | Cocrystal formation, Comparative Example 3 [4]: C | Cocrystal formation, Comparative Example 4-6 [5]: C | Cocrystal formation, Comparative Example 4-2 [5]: C | Cocrystal formation, Comparative Example 4-5 [5]: A | Cocrystal formation, Comparative Example 4-4 [5]: B | Cocrystal formation, Comparative Example 4-1 [5]: C | Cocrystal formation, Comparative Example 4* [5]: A | Cocrystal formation, Example 2 [6]: A
